As a reminder, the EC50 is the midpoint of the concentration-response curve. A word on the Ki: it is the equilibrium dissociation constant of an inhibitor or competing ligand from its target.

Results on three molecules are retold here after patent US20150175655A1 (priority 2012, published 2015).

Assay [1] concerns genotype 1b stable HCV replicon in Huh-7-derived cells. In words: Stable subgenomic HCV replicon EC50, genotype 1b (Renilla luciferase). In kind it is cell-based. The settings on record: Hepatitis C virus, stable replicon genotype 1b, 72 h, read-out: EC50 1B RLUC. On the procedure:
(§1) Antiviral potency (EC50) was determined in both stable subgenomic HCV replicon cell lines and transient-transfected HCV replicon cells. The term half maximal effective concentration (EC50) refers to the concentration of a drug which induces a response halfway between the baseline and maximum after the exposure time specified below.
(§2) Stable subgenomic HCV replicons for genotype 1a, 1 b, 2a, 3a, and 4a were established in Huh-7-derived cells as described by Lohmann et al (Lohmann V, Korner F, Koch J, et al Replication of subgenomic hepatitis C virus RNAs in a hepatoma cell line. Science 1999; 285:119-3). Each stable cell line contains a bicistronic HCV replicon that encodes a humanized Renilla luciferase (hRLuc) reporter gene fused to a selectable neomycin-resistance gene, followed by an EMCV IRES and the NS3-NS5B coding region of HCV. […] Luciferase activity was measured as a marker for intracellular HCV replication levels.
(§3) The genotype 1a stable replicon was derived from the H77 HCV strain and contained adaptive mutations P1496L and S2204I. The genotype 1 b stable replicon was derived from the Cont HCV strain and contained adaptive mutations E1202G, T1280I, and K1846T. […] The genotype 3a stable replicon was derived from the S52 HCV strain and contained adaptive mutations P1121 L, A1198T and S2210I (equivalent to S2204I in genotype 1). The genotype 4a stable replicon was derived from the ED43 HCV strain and contained adaptive mutations Q1691R and S2204I. All replicon cell lines were propagated in Huh-7-derived cells and maintained in Dulbecco's modified Eagle's Medium (DMEM) supplemented with 10% fetal bovine serum (FBS) and 0.5 mg/mL G418.
(§4) To perform EC50 assays, cells from each HCV replicon were dispensed into 384-well plates. Compounds were dissolved in DMSO at a concentration of 10 mM and diluted in DMSO using an automated pipetting instrument. Three-fold serially diluted compounds were directly added to the cells using an automated instrument. […] Seventy-two hours later, cells were lysed and Renilla luciferase activity were quantified as recommended by the manufacturer (Promega-Madison, Wis.). Non-linear regression was performed to calculate EC50 values.
(In general: A replicon is a self-replicating genome or part of one, used to study replication in cells.)

Assay [2] relates to genotype 2a stable HCV replicon (JFH-1 strain) in Huh-7-derived cells. In words: Stable subgenomic HCV replicon EC50, genotype 2a (Renilla luciferase). In kind it is cell-based. The settings on record: Hepatitis C virus, stable replicon genotype 2a, 72 h, read-out: EC50 2A RLUC. On the procedure: as §1, §2, §3, §4
Assay [3] concerns genotype 4a stable HCV replicon (ED43 strain) in Huh-7-derived cells. In words: Stable subgenomic HCV replicon EC50, genotype 4a (Renilla luciferase). In kind it is cell-based. The conditions noted are these: Hepatitis C virus, 72 h, read-out: EC50 4A RLUC. As for the experimental part:
as §1, §2, §3, §4

In assay [4] the test system is genotype 1b (Con1) wild-type transient HCV replicon in Huh-7-derived cells. In words: Transient-transfected HCV replicon EC50, genotype 1b wild type. The class given is cell-based. The conditions noted are these: Hepatitis C virus; transient-transfected replicon genotype 1b wild type, 72 h; read-out: EC50 1B WT.
Assay [5] deals with genotype 1b transient HCV replicon, NS3/4a protease inhibitor resistant variant D168A, in Huh-7-derived cells. Kind of assay: Transient-transfected HCV replicon EC50, genotype 1b D168A. The settings on record: Hepatitis C virus, 72 h, read-out: EC50 1B D168A. In kind it is cell-based.
In another assay the target is T1, NS3 genotype 1b protease (Hepatitis C virus genotype 1b, UniProt Q9WMX2, E1202G).
T1 construct: Purified NS3 protease domain (amino acids 1-181) of the genotype 1b and 3a virus were generated as above; K3 hexahistidine tag (N); rTEV protease cleavage site (N); made in house; host or cells: E. coli BL21AI, pET28 vector p28-N6H-Tev-NS3(181)1b
Kind of assay: Ki determination, NS3 protease genotype 1b (fluorogenic depsipeptide substrate). The class given is biochemical. An excerpt:
The coding sequence of the genotype 1b (con-1 strain) HCV NS3 protease domain was PCR amplified from a plasmid encoding the I389luc-ubi-neo/NS3-3′/ET replicon (Reblikon, Mainz, Germany). The 5′-PCR primer was designed to encode an N-terminal K3 hexahistidine tag and to insert an in-frame recombinant Tobacco Etch virus (rTEV) protease cleavage site into the NS3 coding sequence. The resulting DNA fragment was cloned into the pET28 protein expression vector (Invitrogen, Carlsbad, Calif.) yielding the p28-N6H-Tev-NS3(181)1b.
BL21AI bacteria (Invitrogen, Carlsbad, Calif.) were transformed with genotype 1b or 3 NS3 expression vectors and used to inoculate a 20 L fermentation vessel (Sartorius BBI System Inc., Bethlehem, Pa.), containing 18 L of fresh 2YT medium supplemented with 50 μg/mL kanamycin. When cell densities reached an OD600 of 1, the temperature of the cultures was reduced from 37° C. to 28° C. and induction was immediately initiated by the addition of 30 μM ZnSO4, 14 mM L-arabinose and 1 mM Isopropyl β-D-thiogalactoside (IPTG) final concentrations. Cells were harvested by centrifugation four hours post-induction and were stored as frozen pellets at −80° C. prior to NS3 protein purification.
Cell pellets were thawed and resuspended at 10 mL/g cells in lysis buffer containing 50 mM tris pH 7.6, 300 mM NaCl, 0.1% 3-[(3-cholamidopropyl)dimethylammonio]-1-propanesulfonate (CHAPS), 5% glycerol, and 2 mM β-mercaptoethanol. Cell suspensions were then sonicated, filtered through cheesecloth, and passed three times through a microfluidizer at 18,000 pounds/in^2. The resulting lysates were centrifuged at 15500 rpm for 45 minutes and supernatants were loaded onto a HisTrap HP column (GE Lifesciences) pre-equilibrated with five volumes of Ni buffer A (50 mM tris pH 7.6, 300 mM NaCl, 0.1% CHAPS, 5% glycerol, 2 mM β-mercaptoethanol, 50 mM imidazole-HCl). Proteins were eluted with a 0-100% gradient of Ni buffer A plus 500 mM imidazole-HCl and fractions were collected and pooled. The HisTrap pool was diluted 1:10 with SP-A buffer (50 mM tris pH 7.0, 10% glycerol, 2 mM dithiothreitol (DTT)) and loaded onto a HiTrap SP-HP column (GE Lifesciences) equilibrated with SP-A buffer. NS3 protease was eluted with a 0-100% SP-B buffer (SP-A buffer plus 1 M NaCl) gradient. Concentrated pools of NS3-containing SP fractions were aliquoted, snap frozen in liquid nitrogen and stored at −80° C.
Purified NS3 protease domain (amino acids 1-181) of the genotype 1b and 3a virus were generated as above.
Reactions were run at room temperature in buffer consisting of 50 mM HEPES, 40% glycerol, 0.05% Triton X-100, 10 mM DTT, and 10% DMSO. The final assay solutions contained 50 pM NS3 genotype 1b protease or 200 pM genotype 3a protease, 20 μM NS4A peptide, and 4 μM substrate (genotype 1 b) or 2 μM substrate (genotype 3a). Inhibitor concentrations varied from 100 nM to 5 pM in 3-fold dilutions, and no-inhibitor controls were included.
Compound dilutions were made in DMSO at 20× final concentration. Reaction mixtures were prepared in 96-well assay plates. A solution of enzyme and NS4A peptide in assay buffer (25 μL volume with both reagents at 4× final concentration) was mixed with 45 μL assay buffer and 5 μL of either inhibitor or DMSO, and pre-incubated at room temperature for 1 hour. The reaction was started by addition of 25 μL substrate solution at 4× final concentration. Plates were mixed vigorously for 5-10 seconds and reactions were allowed to proceed for 90 minutes. fluorescence was measured every 30 s between 90 and 120 minutes reaction time using a Tecan InfiniTe M1000 or PerkinElmer Envision multimode plate reader with an excitation wavelength of 340 nm and an emission wavelength of 490 nm.
To determine the K, rates were plotted as a function of inhibitor concentration, and the data were fit with equation 1 (Morrison, J. F., Biochimica et Biophysica Acta 1969, 185, 269-286) to calculate Ki^app using GraphPad Prism 5.

In assay [6] the test system is genotype 1a (H77) wild-type transient HCV replicon in Huh-7-derived cells. In words: Transient-transfected HCV replicon EC50, genotype 1a wild type. In kind it is cell-based. The conditions noted are these: Hepatitis C virus; transient-transfected replicon genotype 1a wild type, 72 h; read-out: EC50 1A WT.
Assay [7] relates to genotype 3a stable HCV replicon (S52 strain) in Huh-7-derived cells. Kind of assay: Stable subgenomic HCV replicon EC50, genotype 3a (Renilla luciferase). The settings on record: Hepatitis C virus, 72 h, read-out: EC50 3A RLUC. In kind it is cell-based. As for the experimental part:
as §1, §2, §3, §4

Assay [8] has as its system genotype 1a transient HCV replicon, NS3/4a protease inhibitor resistant variant R155K, in Huh-7-derived cells. In words: Transient-transfected HCV replicon EC50, genotype 1a R155K. The settings on record: Hepatitis C virus, 72 h, read-out: EC50 1A R155K. The class given is cell-based.
Assay [9] deals with genotype 1a stable HCV replicon (H77 strain) in Huh-7-derived cells. In words: Stable subgenomic HCV replicon EC50, genotype 1a (Renilla luciferase). The class given is cell-based. The settings on record: Hepatitis C virus, stable replicon genotype 1a, 72 h, read-out: EC50 1A RLUC. On the procedure:
as §1, §2, §3, §4

Assay [10] has as its system genotype 3a transient HCV replicon (S52 strain) in Huh-7-derived cells. In words: Transient-transfected HCV replicon EC50, genotype 3a wild type. In kind it is cell-based. The settings on record: Hepatitis C virus; transient-transfected replicon genotype 3a wild type, 72 h; read-out: EC50 3A WT.

SMILES strings stand for the structures.

In the case of `COc1ccc2nc3c(nc2c1)O[C@H]1CN(C(=O)[C@H](C(C)(C)C)NC(=O)O[C@@H]2C[C@H]2CCCCC3)[C@H](C(=O)N[C@]2(C(=O)NS(=O)(=O)C3(C)CC3)C[C@H]2C(F)F)[C@@H]1C1CC1` [Example 31, (1aR,5S,8S,9S,10R,22aR)-5-tert-butyl-9-cyclopropyl-N-[(1R,2R)-2-(difluoromethyl)-1-{[(1-methylcyclopropyl)sulfonyl]carbamoyl}cyclopropyl]-14-methoxy-3,6-dioxo-1,1a,3,4,5,6,9,10,18,19,20,21,22,22a-tetradecahydro-8H-7,10-methanocyclopropa[18,19][1,10,3,6]dioxadiazacyclononadecino[11,12-b]quinoxaline-8-carboxamide], the concentration giving a half-maximal response (EC50) in [1] turned out to be 18 nM; in [2], 63 nM; in assay [3], 20 nM; in [4] it was 6.6 nM; in [5] it was 805 nM; in [6], 27 nM. The EC50 turned out to be 2070 nM in [7], 154 nM in assay [8] and 40 nM in assay [9]. At NS3 genotype 1b protease, this molecule came in with a Ki of 0.13 nM.

`CC[C@@H]1[C@@H]2CN(C(=O)[C@H](C(C)(C)C)NC(=O)O[C@@H]3C[C@H]3CC/C=C/C(F)(F)c3nc4ccc(OC)cc4nc3O2)[C@@H]1C(=O)N[C@]1(C(=O)NS(=O)(=O)C2(C)CC2)C[C@H]1C(F)F` [Example 89, (1aR,5S,8S,9S,10R,19E,22aR)-5-tert-butyl-N-[(1R,2R)-2-(difluoromethyl)-1-{[(1-methylcyclopropyl)sulfonyl]carbamoyl}cyclopropyl]-9-ethyl-18,18-difluoro-14-methoxy-3,6-dioxo-1,1a,3,4,5,6,9,10,18,21,22,22a-dodecahydro-8H-7,10-methanocyclopropa[18,19][1,10,3,6]dioxadiazacyclononadecino[11,12-b]quinoxaline-8-carboxamide]: the EC50 was 6.1 nM in assay [1]; 4.3 nM in assay [2]; 5.5 nM in [10]; 4.6 nM in assay [3]; 3.2 nM in [4]; 5.1 nM in assay [5]. The 50% effective concentration (EC50) in assay [6] was 6 nM; in assay [7], 19 nM; in assay [8], 3.7 nM; in assay [9] it was 6 nM.

Consider `C=C[C@@H]1C[C@]1(NC(=O)[C@@H]1[C@H](CC)[C@@H]2CN1C(=O)[C@H](C(C)(C)C)NC(=O)O[C@@H]1C[C@H]1CCCCC(F)(F)c1nc3ccc(OC)cc3nc1O2)C(=O)NS(=O)(=O)C1CC1` [Example 92, (1aR,5S,8S,9S,10R,22aR)-5-tert-butyl-N-{(1R,2S)-1-[(cyclopropylsulfonyl)carbamoyl]-2-ethenylcyclopropyl}-9-ethyl-18,18-difluoro-14-methoxy-3,6-dioxo-1,1a,3,4,5,6,9,10,18,19,20,21,22,22a-tetradecahydro-8H-7,10-methanocyclopropa[18,19][1,10,3,6]dioxadiazacyclononadecino[11,12-b]quinoxaline-8-carboxamide], for which the concentration giving a half-maximal response (EC50) in assay [1] is 3.2 nM; in assay [2] it was 4.6 nM; in [10], 8 nM; in assay [4] it was 1.7 nM; in [6], 3 nM; in assay [8], 3 nM. The EC50 in assay [9] is 3.3 nM.
